From patent publication US11358949B2, “Carbamate and urea compounds as multikinase inhibitors” (ANGEX PHARMACEUTICAL, INC., priority 2017, dated 2022) come the findings set out here.

One assay deals with LOK/STK10 (Homo sapiens, UniProt O94804). The experiment in a line: HotSpot Kinase Assay, LOK/STK10.
The target of the next assay is c-Kit (Homo sapiens, UniProt P10721). The experiment in a line: HotSpot Kinase Assay, c-Kit.
In the next assay the target is T1, TYRO3/SKY (Homo sapiens, UniProt Q06418).
T1 sequence (Q06418 41-890): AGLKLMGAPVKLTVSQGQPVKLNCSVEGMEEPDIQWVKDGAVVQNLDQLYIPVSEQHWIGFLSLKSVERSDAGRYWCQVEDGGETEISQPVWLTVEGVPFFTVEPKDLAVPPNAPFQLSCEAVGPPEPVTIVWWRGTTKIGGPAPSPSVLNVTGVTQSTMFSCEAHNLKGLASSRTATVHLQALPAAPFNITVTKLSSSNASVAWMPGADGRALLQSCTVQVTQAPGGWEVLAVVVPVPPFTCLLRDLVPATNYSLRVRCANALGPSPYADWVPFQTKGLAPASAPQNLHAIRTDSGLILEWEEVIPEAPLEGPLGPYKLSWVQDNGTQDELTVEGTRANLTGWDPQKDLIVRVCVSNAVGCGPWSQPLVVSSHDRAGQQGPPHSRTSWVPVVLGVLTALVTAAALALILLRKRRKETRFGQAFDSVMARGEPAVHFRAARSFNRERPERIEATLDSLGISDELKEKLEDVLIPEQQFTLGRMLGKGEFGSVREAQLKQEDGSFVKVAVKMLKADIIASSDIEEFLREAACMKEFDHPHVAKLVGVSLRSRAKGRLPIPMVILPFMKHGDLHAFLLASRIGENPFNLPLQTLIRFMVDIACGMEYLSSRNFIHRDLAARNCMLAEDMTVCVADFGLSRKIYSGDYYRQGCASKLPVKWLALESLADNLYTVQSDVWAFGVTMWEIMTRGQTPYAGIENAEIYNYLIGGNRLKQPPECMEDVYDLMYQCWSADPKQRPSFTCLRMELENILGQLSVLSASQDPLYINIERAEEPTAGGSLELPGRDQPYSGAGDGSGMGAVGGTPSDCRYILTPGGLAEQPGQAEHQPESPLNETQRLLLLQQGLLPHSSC
The experiment in a line: HotSpot Kinase Assay, TYRO3/SKY.

The next assay concerns the target DDR1 (Homo sapiens, UniProt Q08345). In words: HotSpot Kinase Assay, DDR1.
Another assay has as its target c-MET (Homo sapiens, UniProt P08581). The experiment in a line: HotSpot Kinase Assay, c-MET.
Another assay deals with EPHA2 (Homo sapiens, UniProt P29317). In words: HotSpot Kinase Assay, EPHA2.
For another assay, the target named is T2, AXL (Homo sapiens, UniProt P30530).
T2 sequence (P30530 26-894): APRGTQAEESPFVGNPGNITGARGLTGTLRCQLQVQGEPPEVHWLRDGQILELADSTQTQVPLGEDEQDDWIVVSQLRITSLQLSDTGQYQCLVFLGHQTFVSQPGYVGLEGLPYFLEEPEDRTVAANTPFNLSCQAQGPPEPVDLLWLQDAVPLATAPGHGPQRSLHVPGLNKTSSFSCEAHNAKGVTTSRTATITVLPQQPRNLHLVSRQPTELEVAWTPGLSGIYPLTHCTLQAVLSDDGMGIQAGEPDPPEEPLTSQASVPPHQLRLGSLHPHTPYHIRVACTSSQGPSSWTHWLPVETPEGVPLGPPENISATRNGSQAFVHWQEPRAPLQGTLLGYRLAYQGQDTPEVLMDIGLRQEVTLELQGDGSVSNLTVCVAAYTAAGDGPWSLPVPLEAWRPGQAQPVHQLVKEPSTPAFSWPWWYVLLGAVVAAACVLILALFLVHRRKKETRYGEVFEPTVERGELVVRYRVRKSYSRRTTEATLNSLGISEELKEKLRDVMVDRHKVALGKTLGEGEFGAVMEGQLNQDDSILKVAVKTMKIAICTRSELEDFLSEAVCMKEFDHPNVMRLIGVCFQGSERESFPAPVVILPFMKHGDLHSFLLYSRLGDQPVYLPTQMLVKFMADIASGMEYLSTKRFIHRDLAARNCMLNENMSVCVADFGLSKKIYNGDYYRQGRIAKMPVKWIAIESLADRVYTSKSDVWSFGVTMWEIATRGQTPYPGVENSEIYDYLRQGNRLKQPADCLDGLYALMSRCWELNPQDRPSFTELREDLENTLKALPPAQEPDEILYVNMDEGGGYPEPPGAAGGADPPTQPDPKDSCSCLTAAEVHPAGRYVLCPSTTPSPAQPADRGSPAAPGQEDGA
In words: HotSpot Kinase Assay, AXL.

For the next assay, the target named is FMS (Homo sapiens, UniProt P07333). The experiment in a line: HotSpot Kinase Assay, FMS.
In the next assay the target is KDR/VEGFR2 (Homo sapiens, UniProt P35968). In words: HotSpot Kinase Assay, KDR/VEGFR2.
The target in the next assay is T3, c-MER (Homo sapiens, UniProt Q12866).
T3 sequence (Q12866 21-999): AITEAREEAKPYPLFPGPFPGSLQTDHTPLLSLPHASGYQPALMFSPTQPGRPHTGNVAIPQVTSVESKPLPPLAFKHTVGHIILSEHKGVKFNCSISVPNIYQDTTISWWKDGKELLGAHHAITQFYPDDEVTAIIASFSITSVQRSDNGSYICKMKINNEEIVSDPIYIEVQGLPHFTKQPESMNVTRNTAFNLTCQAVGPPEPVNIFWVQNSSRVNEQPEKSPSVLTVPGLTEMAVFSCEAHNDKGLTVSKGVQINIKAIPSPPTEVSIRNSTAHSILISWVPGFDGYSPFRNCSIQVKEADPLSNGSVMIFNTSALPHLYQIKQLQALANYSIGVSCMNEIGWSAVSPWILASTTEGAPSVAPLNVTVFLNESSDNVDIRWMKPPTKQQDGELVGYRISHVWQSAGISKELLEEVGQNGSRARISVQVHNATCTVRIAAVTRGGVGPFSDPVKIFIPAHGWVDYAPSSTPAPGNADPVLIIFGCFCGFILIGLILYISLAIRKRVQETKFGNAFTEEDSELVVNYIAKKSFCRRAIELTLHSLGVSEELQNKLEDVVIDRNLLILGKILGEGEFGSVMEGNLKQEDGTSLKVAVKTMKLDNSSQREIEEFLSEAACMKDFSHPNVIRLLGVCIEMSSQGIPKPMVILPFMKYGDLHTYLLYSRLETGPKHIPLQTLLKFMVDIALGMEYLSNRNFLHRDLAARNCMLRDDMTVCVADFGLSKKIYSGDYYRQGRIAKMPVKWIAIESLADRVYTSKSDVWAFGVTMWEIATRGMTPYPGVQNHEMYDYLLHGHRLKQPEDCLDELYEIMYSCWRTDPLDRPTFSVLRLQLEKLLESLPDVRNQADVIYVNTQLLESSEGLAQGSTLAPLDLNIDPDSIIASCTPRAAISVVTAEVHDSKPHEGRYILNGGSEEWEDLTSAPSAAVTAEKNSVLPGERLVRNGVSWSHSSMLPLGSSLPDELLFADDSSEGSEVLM
The experiment in a line: HotSpot Kinase Assay, c-MER.

SMILES strings stand for the structures.

Sequence of KDR/VEGFR2 (P35968 20-1356): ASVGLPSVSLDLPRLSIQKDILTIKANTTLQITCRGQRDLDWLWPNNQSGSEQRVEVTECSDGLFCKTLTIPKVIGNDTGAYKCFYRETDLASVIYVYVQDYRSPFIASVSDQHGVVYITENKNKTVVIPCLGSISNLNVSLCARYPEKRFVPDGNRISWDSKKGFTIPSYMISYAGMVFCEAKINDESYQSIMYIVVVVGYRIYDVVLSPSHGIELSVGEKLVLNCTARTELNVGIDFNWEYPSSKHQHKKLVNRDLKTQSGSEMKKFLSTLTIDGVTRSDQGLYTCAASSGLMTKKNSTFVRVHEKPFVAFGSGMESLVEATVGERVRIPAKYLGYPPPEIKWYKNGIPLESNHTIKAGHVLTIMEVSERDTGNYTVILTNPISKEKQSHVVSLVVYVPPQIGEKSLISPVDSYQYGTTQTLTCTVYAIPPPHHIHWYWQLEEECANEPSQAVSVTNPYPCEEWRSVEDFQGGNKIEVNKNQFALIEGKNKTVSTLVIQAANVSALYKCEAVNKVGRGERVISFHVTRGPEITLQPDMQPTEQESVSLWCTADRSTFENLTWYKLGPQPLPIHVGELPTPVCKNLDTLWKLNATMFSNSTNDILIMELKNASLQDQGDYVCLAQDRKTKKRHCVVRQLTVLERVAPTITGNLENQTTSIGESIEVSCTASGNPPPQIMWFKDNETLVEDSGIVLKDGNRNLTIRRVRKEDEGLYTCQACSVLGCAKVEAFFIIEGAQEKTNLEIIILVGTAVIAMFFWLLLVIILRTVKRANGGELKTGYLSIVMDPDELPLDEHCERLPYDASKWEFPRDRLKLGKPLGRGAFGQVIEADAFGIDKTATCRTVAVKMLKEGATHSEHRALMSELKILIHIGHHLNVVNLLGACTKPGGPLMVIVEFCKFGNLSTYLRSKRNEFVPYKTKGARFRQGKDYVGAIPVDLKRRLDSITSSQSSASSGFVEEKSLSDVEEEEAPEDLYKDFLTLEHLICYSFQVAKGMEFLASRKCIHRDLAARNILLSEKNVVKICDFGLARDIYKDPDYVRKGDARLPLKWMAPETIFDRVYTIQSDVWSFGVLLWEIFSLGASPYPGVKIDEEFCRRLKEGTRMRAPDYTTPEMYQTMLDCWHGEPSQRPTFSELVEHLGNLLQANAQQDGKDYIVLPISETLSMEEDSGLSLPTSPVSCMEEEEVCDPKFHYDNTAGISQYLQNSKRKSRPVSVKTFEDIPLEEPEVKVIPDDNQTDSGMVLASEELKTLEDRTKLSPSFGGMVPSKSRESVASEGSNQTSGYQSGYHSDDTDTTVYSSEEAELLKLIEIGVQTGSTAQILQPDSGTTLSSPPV
Sequence of c-MET (P08581 25-1390): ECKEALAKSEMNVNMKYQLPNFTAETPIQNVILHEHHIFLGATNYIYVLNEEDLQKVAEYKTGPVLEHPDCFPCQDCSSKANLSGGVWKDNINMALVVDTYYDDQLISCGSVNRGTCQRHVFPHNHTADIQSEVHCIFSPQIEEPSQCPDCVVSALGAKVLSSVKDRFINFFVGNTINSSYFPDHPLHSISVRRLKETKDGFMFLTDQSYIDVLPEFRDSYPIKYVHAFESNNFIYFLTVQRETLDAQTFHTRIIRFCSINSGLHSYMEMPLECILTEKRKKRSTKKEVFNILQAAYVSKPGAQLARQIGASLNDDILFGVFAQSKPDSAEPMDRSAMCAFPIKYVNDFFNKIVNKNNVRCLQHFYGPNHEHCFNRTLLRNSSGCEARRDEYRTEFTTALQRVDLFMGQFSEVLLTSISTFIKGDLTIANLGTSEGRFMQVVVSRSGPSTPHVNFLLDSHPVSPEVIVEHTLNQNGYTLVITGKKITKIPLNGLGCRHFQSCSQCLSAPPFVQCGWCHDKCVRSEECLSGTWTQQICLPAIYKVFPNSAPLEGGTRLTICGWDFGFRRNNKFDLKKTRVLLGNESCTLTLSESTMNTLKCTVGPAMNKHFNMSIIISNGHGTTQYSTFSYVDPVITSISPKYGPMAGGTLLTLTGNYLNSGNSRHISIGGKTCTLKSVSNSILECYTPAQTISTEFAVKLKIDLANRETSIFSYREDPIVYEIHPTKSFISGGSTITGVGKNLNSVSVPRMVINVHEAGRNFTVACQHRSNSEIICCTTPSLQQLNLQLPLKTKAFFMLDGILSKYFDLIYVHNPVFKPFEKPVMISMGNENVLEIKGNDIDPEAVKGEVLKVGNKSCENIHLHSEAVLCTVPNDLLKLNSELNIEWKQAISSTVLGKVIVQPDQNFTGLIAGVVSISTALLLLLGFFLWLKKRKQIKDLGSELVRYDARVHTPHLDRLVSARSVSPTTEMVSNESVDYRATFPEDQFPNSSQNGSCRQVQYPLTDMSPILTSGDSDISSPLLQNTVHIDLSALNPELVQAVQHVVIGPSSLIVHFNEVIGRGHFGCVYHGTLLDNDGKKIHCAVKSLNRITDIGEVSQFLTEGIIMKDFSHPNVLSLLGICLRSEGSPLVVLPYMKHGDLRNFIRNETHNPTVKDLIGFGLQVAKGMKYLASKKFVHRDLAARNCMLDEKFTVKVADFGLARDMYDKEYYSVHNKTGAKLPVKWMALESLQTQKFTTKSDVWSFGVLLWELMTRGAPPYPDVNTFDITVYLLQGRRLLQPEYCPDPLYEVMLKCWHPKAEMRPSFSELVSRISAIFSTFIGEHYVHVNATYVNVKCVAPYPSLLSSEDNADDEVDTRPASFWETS
Sequence of EPHA2 (P29317 24-976): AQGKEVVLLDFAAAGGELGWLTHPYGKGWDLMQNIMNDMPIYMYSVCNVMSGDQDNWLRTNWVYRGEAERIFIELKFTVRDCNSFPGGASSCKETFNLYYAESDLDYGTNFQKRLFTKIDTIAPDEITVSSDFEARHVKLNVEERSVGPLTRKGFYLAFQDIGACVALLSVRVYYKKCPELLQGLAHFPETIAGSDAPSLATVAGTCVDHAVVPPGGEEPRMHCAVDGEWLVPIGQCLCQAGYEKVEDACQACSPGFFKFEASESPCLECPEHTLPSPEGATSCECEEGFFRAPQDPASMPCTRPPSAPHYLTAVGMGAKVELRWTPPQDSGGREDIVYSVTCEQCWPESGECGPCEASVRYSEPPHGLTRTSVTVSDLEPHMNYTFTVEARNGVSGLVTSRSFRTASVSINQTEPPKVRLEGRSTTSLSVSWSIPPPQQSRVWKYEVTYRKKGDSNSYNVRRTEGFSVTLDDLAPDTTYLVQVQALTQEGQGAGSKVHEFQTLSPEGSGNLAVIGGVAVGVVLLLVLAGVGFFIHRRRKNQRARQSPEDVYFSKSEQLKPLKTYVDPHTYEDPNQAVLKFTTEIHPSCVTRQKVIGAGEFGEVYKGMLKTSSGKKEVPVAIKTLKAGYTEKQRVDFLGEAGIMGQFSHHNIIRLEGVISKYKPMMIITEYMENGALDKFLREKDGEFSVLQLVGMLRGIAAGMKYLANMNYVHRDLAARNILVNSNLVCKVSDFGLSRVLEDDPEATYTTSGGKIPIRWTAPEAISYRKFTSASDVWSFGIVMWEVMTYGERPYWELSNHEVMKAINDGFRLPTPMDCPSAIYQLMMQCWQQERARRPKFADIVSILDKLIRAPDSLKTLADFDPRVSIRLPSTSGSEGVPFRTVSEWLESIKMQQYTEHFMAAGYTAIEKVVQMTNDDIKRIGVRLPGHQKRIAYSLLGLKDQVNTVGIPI
Sequence of FMS (P07333 20-972): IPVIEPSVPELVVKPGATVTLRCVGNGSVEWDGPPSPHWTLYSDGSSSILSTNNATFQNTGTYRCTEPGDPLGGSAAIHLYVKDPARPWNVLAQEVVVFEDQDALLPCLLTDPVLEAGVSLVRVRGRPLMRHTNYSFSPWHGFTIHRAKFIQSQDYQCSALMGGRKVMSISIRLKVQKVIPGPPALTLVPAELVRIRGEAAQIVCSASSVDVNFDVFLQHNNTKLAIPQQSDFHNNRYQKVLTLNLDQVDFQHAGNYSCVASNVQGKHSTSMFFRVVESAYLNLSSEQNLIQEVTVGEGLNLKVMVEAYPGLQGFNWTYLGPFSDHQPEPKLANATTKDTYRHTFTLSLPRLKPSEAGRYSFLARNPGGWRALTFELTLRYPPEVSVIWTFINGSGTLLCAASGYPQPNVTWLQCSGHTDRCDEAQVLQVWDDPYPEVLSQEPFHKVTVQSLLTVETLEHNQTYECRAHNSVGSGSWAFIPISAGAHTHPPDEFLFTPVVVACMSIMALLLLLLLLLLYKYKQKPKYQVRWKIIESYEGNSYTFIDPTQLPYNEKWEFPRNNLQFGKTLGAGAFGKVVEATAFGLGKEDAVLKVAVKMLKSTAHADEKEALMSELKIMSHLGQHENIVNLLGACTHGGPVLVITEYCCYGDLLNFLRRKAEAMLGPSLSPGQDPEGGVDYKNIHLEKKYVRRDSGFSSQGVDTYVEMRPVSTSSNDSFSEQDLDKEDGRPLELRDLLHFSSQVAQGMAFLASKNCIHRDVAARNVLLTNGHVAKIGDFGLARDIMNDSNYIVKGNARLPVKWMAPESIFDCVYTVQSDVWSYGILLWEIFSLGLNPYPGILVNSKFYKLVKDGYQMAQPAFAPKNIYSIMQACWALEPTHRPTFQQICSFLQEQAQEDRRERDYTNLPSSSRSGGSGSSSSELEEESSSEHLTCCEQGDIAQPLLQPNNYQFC
Description for EPHA2: (§1) Specifically, for each reaction, kinase and substrate were mixed in a pH 7.5 buffer containing 20 mM HEPES, 10 mM MgCl2, 1 mM EGTA [Ethylene glycol-bis(2-aminoethylether)-N,N,N′,N′-tetraacetic acid], 0.02% Brij35, 0.02 mg/mL BSA (Bovine Serum Albumin), 0.1 mM Na3VO4, 2 mM DTT, and 1% DMSO. Compounds were then added to each reaction mixture. After a 20-min incubation, ATP (Sigma-Aldrich) and [γ-^33P] ATP (PerkinElmer) were added at a final total concentration of 100 μM. Reactions were carried out at room temperature for 2 hours and spotted onto P81 ion exchange cellulose chromatography paper (Whatman). […] The percent remaining kinase activity relative to a vehicle-containing (DMSO) kinase reaction was calculated for each kinase/inhibitor pair. […] IC50 values were calculated using Prism 5 (GraphPad).
Description for FMS: as §1
Description for KDR/VEGFR2: as §1

As for `COc1cc2c(Oc3ccc(NC(=O)C4(C(=O)Nc5ccc(F)cc5)CC4)cc3)ccnc2cc1OC(=O)N1CCNC[C@H]1C` [Compound 6-4], the IC50 (in general, the concentration needed to halve the response being measured) is 100 to 1000 nM at LOK/STK10; under 100 nM against c-Kit; 100 to 1000 nM on TYRO3/SKY; under 100 nM against DDR1; under 100 nM at c-MET; 100 to 1000 nM against EPHA2. Also, the 50% inhibitory concentration (IC50) is under 100 nM against AXL, under 100 nM against FMS, 100 to 1000 nM on KDR/VEGFR2 and under 100 nM against c-MER.
Take `COc1cc2c(Oc3ccc(NC(=O)C4(C(=O)Nc5ccc(F)cc5)CC4)cc3)ccnc2cc1OC(=O)N1CCNCC1(C)C` [Compound 6-5]: the IC50 against LOK/STK10 was 100 to 1000 nM; on c-Kit, under 100 nM; against TYRO3/SKY, 100 to 1000 nM; at DDR1 it was under 100 nM; on c-MET, under 100 nM; against EPHA2, 100 to 1000 nM. Besides, the concentration for half-maximal inhibition (IC50) against AXL is under 100 nM; against FMS it was 100 to 1000 nM; at KDR/VEGFR2, over 1000 nM; against c-MER it was under 100 nM.
Turning to `COc1cc2c(Oc3ccc(NC(=O)C4(C(=O)Nc5ccc(F)cc5)CC4)cc3)ccnc2cc1OC(=O)N1CCN(C)CC1(C)C` [Compound 6-6], the IC50 against LOK/STK10 was 100 to 1000 nM; at c-Kit, under 100 nM; at TYRO3/SKY it was 100 to 1000 nM; against DDR1 it was under 100 nM; on c-MET it was 100 to 1000 nM; against EPHA2, 100 to 1000 nM. Further, the concentration for half-maximal inhibition (IC50) is under 100 nM against AXL, 100 to 1000 nM against FMS, 100 to 1000 nM against KDR/VEGFR2 and under 100 nM against c-MER.
In the case of `COc1cc2nccc(Oc3ccc(NC(=O)C4(C(=O)Nc5ccc(F)cc5)CC4)cc3)c2cc1OC(=O)N1CCNC[C@H]1C` [Compound 7-2], the 50% inhibitory concentration (IC50) against LOK/STK10, at c-Kit, against TYRO3/SKY, against DDR1, on c-MET and on EPHA2 was under 100 nM throughout. The concentration for half-maximal inhibition (IC50) at AXL, against FMS, against KDR/VEGFR2 and on c-MER was under 100 nM throughout.
In the case of `COc1cc2nccc(Oc3ccc(NC(=O)C4(C(=O)Nc5ccc(F)cc5)CC4)cc3)c2cc1OC(=O)N1CCN(C)C[C@H]1C` [Compound 7-3], the IC50 on LOK/STK10 was 100 to 1000 nM; at c-Kit, under 100 nM; against TYRO3/SKY, under 100 nM; against DDR1 it was under 100 nM; against c-MET, under 100 nM; on EPHA2 it was 100 to 1000 nM. The IC50 against AXL, against FMS, on KDR/VEGFR2 and against c-MER was under 100 nM each time.
Consider `COc1cc2nccc(Oc3ccc(NC(=O)C4(C(=O)Nc5ccc(F)cc5)CC4)cc3)c2cc1OC(=O)N1[C@H](C)CNC[C@@H]1C` [Compound 7-4], for which the IC50 was 100 to 1000 nM against LOK/STK10; under 100 nM on c-Kit; under 100 nM against TYRO3/SKY; under 100 nM at DDR1; under 100 nM against c-MET; 100 to 1000 nM against EPHA2. Further, the IC50 against AXL, against FMS, against KDR/VEGFR2 and against c-MER was under 100 nM in each case.
In the case of `COc1cc2nccc(Oc3ccc(NC(=O)C4(C(=O)Nc5ccc(F)cc5)CC4)cc3)c2cc1OC(=O)N1[C@H](C)CN(C)C[C@@H]1C` [Compound 7-5], the half-maximal inhibitory concentration (IC50) was 100 to 1000 nM on LOK/STK10; under 100 nM on c-Kit; under 100 nM on TYRO3/SKY; under 100 nM on DDR1; under 100 nM against c-MET; 100 to 1000 nM against EPHA2. The IC50 against AXL, against FMS, on KDR/VEGFR2 and against c-MER was under 100 nM throughout.
With `COc1cc2nccc(Oc3ccc(NC(=O)C4(C(=O)Nc5ccc(F)cc5)CC4)cc3)c2cc1OC(=O)N1CCNCC1(C)C` [Compound 7-6], the 50% inhibitory concentration (IC50) on LOK/STK10 was 100 to 1000 nM; against c-Kit, under 100 nM; against TYRO3/SKY it was under 100 nM; at DDR1, under 100 nM; against c-MET, under 100 nM; on EPHA2, 100 to 1000 nM. The IC50 was under 100 nM on AXL, 100 to 1000 nM on FMS, under 100 nM against KDR/VEGFR2 and under 100 nM against c-MER.
For `COc1cc2nccc(Oc3ccc(NC(=O)C4(C(=O)Nc5ccc(F)cc5)CC4)cc3)c2cc1OC(=O)N1CCN(C)CC1(C)C` [Compound 7-7], the concentration for half-maximal inhibition (IC50) at LOK/STK10 is over 1000 nM; on c-Kit, under 100 nM; on TYRO3/SKY, 100 to 1000 nM; against DDR1, under 100 nM; against c-MET it was under 100 nM; against EPHA2, 100 to 1000 nM. Besides, the half-maximal inhibitory concentration (IC50) is under 100 nM against AXL, 100 to 1000 nM against FMS, 100 to 1000 nM on KDR/VEGFR2 and under 100 nM against c-MER.
